Assay results as given in ChEMBL document CHEMBL5346879, “Identification of a short ACE2-derived stapled peptide targeting the SARS-CoV-2 spike protein” (Eur J Med Chem, 2023).
Where a SMILES comes first, the peptide text is derived from it. Bridges are numbered along the chain shown (N, C = ends). [ ]: non-standard residue; d: D form. S5 = C=CCCC[C@](C)(N)C(=O)O

Columns and labels:
[1] = target: Spike glycoprotein/Angiotensin-converting enzyme 2 (Severe acute respiratory syndrome coronavirus 2) (UniProt Q9BYF1+P0DTC2); test: Inhibition of SARS-CoV-2 spike protein RBD- human ACE2 interaction at 30 uM incubated for 1 hr by colorimetric ELISA assay relative to control
[2] = target: Spike glycoprotein/Angiotensin-converting enzyme 2 (Severe acute respiratory syndrome coronavirus 2, UniProt P0DTC2); test: Inhibition of SARS-CoV-2 spike protein RBD- human ACE2 interaction incubated for 1 hr by colorimetric ELISA assay
[3] = Stability in human plasma assessed as peptide degradation at 200 ug/ml incubated for 48 hrs by LC-MS/MS analysis; type: ADME, cell-free; conditions: at 200 µg/mL

| Molecule | inhibition [1] [%] | IC50 [2] [µM] | Stability [3] |
| --- | --- | --- | --- |
| CC(C)C[C@@H]1NC(=O)[C@H](CC(=O)O)NC(=O)[C@H](CCC(=O)O)NC(=O)[C@@](C)(NC(=O)[C@H](CCC(=O)O)NC(=O)[C@@H](N)Cc2c[nH]cn2)CCC/C=C\CCC[C@@](C)(C(=O)N[C@@H](Cc2ccc(O)cc2)C(=O)N[C@@H](CCC(N)=O)C(N)=O)NC1=O (H-HE[S5]EDL[S5]YQ-NH2; staple (Z) 3-7) | 55 | 21 | Stable |
| H-HEAEDLFYQ-NH2 | – | – | Stable |
